Patent publication US20260356901A1, “ONCOLYTIC PEPTIDES” (The Johns Hopkins University, priority 2023, published 2026)
Read-outs that look alike come from different tables or passages of the source. Square brackets hold non-standard residues; d marks the D form. Ends that are not written are not given here. Peptide text beside a SMILES is read from it. * marks the point of attachment. Dip = N[C@H](C(=O)O)C(c1ccccc1)c1ccccc1; Cbz = O=C(OCc1ccccc1)*; CH2F = FC*

Key:
[1] = other reported oncolytic peptides; cited from earlier work
[2] = tested on: 4T1 cells; assay: LDH release assay (CyQUANT) in 4T1 cells; type: cell-based, murine; settings: pre-treated 50 μM inhibitor 30 minutes, then 100 μM CKS1 6 hours
Procedure: FIG. 3A is a graph of cell viability of 4T1 murine triple negative breast cancer cells (TNBC) after 100 μM or 20 μM CKS1 treatment measured by real-time cell analyzer (RTCA). Means±SEM, representative of N=3. FIG. 3B is a graph of lactate dehydrogenase (LDH) release in 4T1 cells pre-treated with 50 μM pan-caspase inhibitor Z-VAD for 30 minutes or 50 μM RIPK1 inhibitor Nec-1s for 30 minutes then treated with 100 μM CKS1 for 6 hours. LDH release in the supernatant was measured by the CyQUANT LDH cytotoxicity assay. Means±SEM, N=3, Dunnett's test (***p<0.005). […] The release of LDH in the supernatant was measured and was normalized to the amount of LDH released from cells treated with lysis buffer. […]
FIG. 5A is a graph of the release of LDH in the supernatant measured after treating 4T1 cells with 100 μM of the indicated peptides for 6 hours. […]
To determine whether CKS1 functions as an oncolytic peptide, the cell viability of 4T1 murine breast cancer cells was observed after CKS1 treatment using xCELLigence Real-Time Cell Analyzer (Agilent). In this method, the binding of cells to gold electrodes is detected as electrical impedance and graphed as arbitrary units of cell index in real time. […] The release of lactate dehydrogenase (LDH) was also quantified in the culture media after CKS1 treatment. […]

[3] = Solubility in water; type: physicochemical; settings: data not shown
Source text: Peptides The peptides were synthesized by Genscript (Piscataway, NJ) using a solid-phase peptide synthesis technique. The purity was >90% as verified by HPLC and MS analyses. The peptides were solubilized in water.

[4] = tested on: CT26 cells; assay: LDH release assay in CT26 cells; type: cell-based, murine; settings: CT26, 6 hours
Procedure: (§1) FIG. 3A is a graph of cell viability of 4T1 murine triple negative breast cancer cells (TNBC) after 100 μM or 20 μM CKS1 treatment measured by real-time cell analyzer (RTCA). Means±SEM, representative of N=3. FIG. 3B is a graph of lactate dehydrogenase (LDH) release in 4T1 cells pre-treated with 50 μM pan-caspase inhibitor Z-VAD for 30 minutes or 50 μM RIPK1 inhibitor Nec-1s for 30 minutes then treated with 100 μM CKS1 for 6 hours. LDH release in the supernatant was measured by the CyQUANT LDH cytotoxicity assay. Means±SEM, N=3, Dunnett's test (***p<0.005). FIGS. 3C-3G are graphs of LDH release in human osteosarcoma U2OS cells, murine fibrosarcoma MCA205 cells, murine colon carcinoma CT26 cells, murine normal NIH/3T3 fibroblasts, and HUVECs, respectively, treated with the indicated concentration of CKS1 for 6 hours. The release of LDH in the supernatant was measured and was normalized to the amount of LDH released from cells treated with lysis buffer. Means±SEM, N=3, Dunnett's test (**p<0.01, ***p<0.005). FIG. 3H is a graph of the incorporation of BrdU in HUVECs treated with CKS1. Means±SEM, N=3, Dunnett's test (**p<0.01, ***p<0.005).
(§2) LDH assay 1.5×10^4 cells were seeded in a 96 well plate and incubated overnight. The cells were washed once, and the medium was replaced with serum free media. Cells were treated for the indicated time and concentration. […]

[5] = tested on: U2OS cells; assay: LDH release assay in U2OS cells; type: cell-based, human; settings: 6 hours
Procedure: as §1, §2

[6] = tested on: MCA205 cells; assay: LDH release assay in MCA205 cells; type: cell-based, murine; settings: MCA205, 6 hours
Procedure: as §1, §2

[7] = tested on: NIH/3T3 normal fibroblasts; assay: LDH release assay in NIH/3T3 cells; type: cell-based, murine; settings: 6 hours
Procedure: as §1, §2

[8] = tested on: HUVECs; assay: LDH release assay in HUVECs; type: cell-based, human; settings: 6 hours
Procedure: as §1, §2

[9] = tested on: healthy cells; assay: LDH assay against cancer cells not included in NCI-60 and healthy cells; type: cell-based
Procedure: LDH assay 1.5×10^4 cells were seeded in a 96 well plate and incubated overnight. The cells were washed once, and the medium was replaced with serum free media. Cells were treated for the indicated time and concentration. CyQUANT LDH cytotoxicity assay (Invitrogen, Carlsbad, CA) was used following the manufacturer's instructions.

Molecule: NCCCC[C@H](NC(=O)[C@@H](NC(=O)[C@H](Cc1c[nH]c2ccccc12)NC(=O)[C@H](CCCCN)NC(=O)[C@H](CCCCN)NC(=O)[C@H](Cc1c[nH]c2ccccc12)NC(=O)[C@H](Cc1c[nH]c2ccccc12)NC(=O)[C@H](CCCCN)NC(=O)[C@@H](N)CCCCN)C(c1ccccc1)c1ccccc1)C(N)=O [LTX-315] (H-KKWWKKW[Dip]K-NH2)
- solubility in water [1]: not soluble in water

Molecule: CN1C(=O)NC(Cc2c[nH]c3c(Cl)cccc23)C1=O (centres unmarked) [Nec-1s, necrostatin-1 stable]
- inhibition of CKS1-induced LDH release by pretreatment [2]: did not inhibit the release of LDH

Molecule: CC(NC(=O)C(NC(=O)OCc1ccccc1)C(C)C)C(=O)NC(CC(=O)O)C(=O)CF (stereo not drawn) [Z-VAD] (Cbz-Val-Ala-Asp-CH2F; configuration not given here)
- inhibition of CKS1-induced LDH release by pretreatment [2]: did not inhibit the release of LDH

Molecule: IVKKIIEKMLNS [SEQ ID NO: 42, IVKKIIEKMLNS]
- solubility in water [3]: not soluble in water

Molecule: NGRKACLNPASPIVKKIIEKMLNS [CKS1]
- solubility in water [3]: high solubility in water
- cytotoxicity (LDH release) [4]: effective
- cytotoxicity (LDH release) [5]: effective
- cytotoxicity (LDH release) [6]: effective
- cell death (LDH release) in normal cells [7]: did not induce cell death
- cell death (LDH release) in normal cells [8]: did not induce cell death

Molecule: NGRKAKLNPASIVKKIIKKILKS [NF27]
- toxicity against healthy cells compared to cancer cells [9]: significantly lower toxicity
